Experimental data reported in patent US12622896B2, “Antiviral compounds, compositions and methods of use” (THE UNIVERSITY OF BRITISH COLUMBIA, priority 2019, dated 2026).
Several values for one entry are separate records, joined by “and”; a condition that tells them apart may be missing. Equal entries are not always repeated.

What was measured:
[1] = system: HIV-1IIIB (subtype B, X4-tropic); experiment: Anti-HIV viral spread assay in CEM-GXR cells, wild-type subtype B; type: cell-based; details: Human immunodeficiency virus 1; CEM-GXR cells, viral spread, nonlinear regression; read-out: EC50 (WT Subtype B)
From the text: (§1) To validate these EC50 values, the anti-HIV drug, emtricitabine (FTC) was included in the anti-HIV assay as a positive control.

[2] = system: HIV-1 97USSN54 (subtype A, R5-tropic); experiment: Anti-HIV viral spread assay in CEM-GXR cells, wild-type subtype A; type: cell-based; details: Human immunodeficiency virus 1, nonlinear regression, read-out: EC50 (WT Subtype A)
From the text: as §1

PBMCs = experiment: PBMC viability by ViaCount assay over 11 days; type: cell-based, human; details: up to 11 days; for cellular toxicity in PBMCs: 0.1-10 μM range
[3] = system: Bcl-x transcript splicing; experiment: SR-protein induced Bcl-x splicing, X2.13 minigene in 293 cells, RT-PCR; type: cell-based; details: 10 μM
[4] = system: PI-resistant isolate (2948); experiment: Anti-HIV assay against PI-resistant isolate 2948; details: Human immunodeficiency virus 1, read-out: EC50 against PI-resistant isolate 2948
Protocol: (§2) The anti-HIV activity of the compounds was measured by a human T-cell reporter assay based on CEM-GXR cells. These cells express GFP due to the activation of the tat-dependent promoter upon HIV-1 infection, and the level of infection was monitored using Flow cytometric analysis (Guavasoft 2.2™ software, Guava HT8, Millipore™). Antiviral activity was evaluated in an assay that measures the inhibition of HIV-1 spread in a co-culture of CEM-GXR cells containing one percent of HIV-1 infected (GFP positive) cells.

HIV-1Bal strain = experiment: PBMC infection assay, p24Gag ELISA day 11, HIV-1BaL; details: read-out: EC50 against HIV-1Bal in PBMC; three separate donors, one value per donor; p24 day 11; listed as GPS488
Protocol: Peripheral blood mononuclear cells (PBMC) were obtained from healthy HIV-negative donors following written informed consent and maintained in R10+ supplemented with 50 U/mL human IL-2. […] PBMC were activated with 5 μg/ml PHA and infected 3 days later with viral stocks at a multiplicity of infection (MOI) of 0.01. At 6 h post-infection, cells were washed and re-suspended in R10+ medium supplemented with 50 U/ml of IL-2 in the presence of GPS molecules or FTC as a control compound for an additional 11 days. The accumulation of p24Gag was quantified in culture supernatants at day 11 using an enzyme-linked immunosorbent assay (ELISA; Xpress Bio™), and the increase in p24Gag values was used as the measure of viral replication.

[5] = system: Maraviroc-resistant variant of HIV-1BaL; experiment: Anti-HIV assay against Maraviroc-resistant R5 strain; details: Human immunodeficiency virus 1, read-out: EC50 against Maraviroc-resistant HIV-1 strain
Protocol: as §2
(§3) This Maraviroc-resistant variant derived from a R5 strain of HIV-1BaL contains five mutations within the envelope V3 loop: A19T, L20F, T22A, E25D, and I26V.

[6] = system: (N)NRTI-resistant isolate (E00443); experiment: Anti-HIV assay against (N)NRTI-resistant isolate E00443; details: Human immunodeficiency virus 1, read-out: EC50 against isolate E00443
Protocol: as §2

[7] = system: clinical isolate (11845 INI); experiment: Anti-HIV assay against INI-resistant clinical isolate 11845; details: Human immunodeficiency virus 1, read-out: EC50 against 11845 clinical isolate
Protocol: as §2, §3

HIV-1NL4-3 = experiment: Preliminary anti-HIV screen: CEM-GXR reporter cells co-cultured with HIV-1NL4-3 infected cells, GFP by flow cytometry; details: for anti-HIV activity, rank within the analogue series: within the C-2 substituted thiophene or thiazole series; for anti-HIV activity in the primary library screen: CEM-GXR cells, 1.25-10 μM, percent infected cells on day 3 (FIGS. 1A, 1B)
Protocol: as §2
The reporter CEM-GXR cells were infected by co-culture with one percent HIV-1NL4-3 infected (GFP positive) cells at the start of the assay (day 0). Individual compounds from the library was added in DMSO at varying concentrations to the culture in each microplate well immediately after the inoculation by infected cells. The final library compound concentration ranged from 1.25-10 μM and the final DMSO concentration was less than 0.1%. The percent of infected cells in the culture was determined by flow cytometry on day 3 using GFP expression as a readout.

CEM-GXR cells = experiment: Guava ViaCount cytotoxicity on CEM-GXR cells; type: cell-based, human; details: for toxicity of thiophene analogues: C-2 CF3 thiophene analogues; for toxicity in the preliminary screen: at 5 μM, data not shown
Protocol: The ViaCount™ assay was performed with the Guava easyCyte 8HT™ flow cytometer according to the manufacturer's manual (Guava Technologies™, Inc., Hayward, CA, USA). In brief, CEM-GXR cells were seeded in 96-well plates 80000 cells/well in the absence or presence of compound in various concentrations. Twenty-four hours later, 25 μL of cell suspension was mixed with 225 μL of Guava ViaCount™ reagent, and the mixture was incubated for 5 min at room temperature. Sample acquisition and data analysis were performed with the selection of EasyFit™ analysis feature using the ViaCount™ software module.
The potential cytotoxic effect of the molecules on CEM-GXR cells viability was determined by the Guava ViaCount assay. This assay differentially stains viable and nonviable cells based on their permeability to the DNA-binding dyes and uses the forward scatter (FSC) properties to distinguish free nuclei and cellular debris from intact cells to quantify cell count. CEM-GXR cells were incubated with compound at concentrations ranging between 0.5 and 100 μM for 24 h.

HIV = details: literature; cited from earlier work

O=C(Nc1nc2c(Cl)cccc2s1)c1cnc(C(F)(F)F)s1 [12a, N-(4-chlorobenzo[d]thiazol-2-yl)-2-(trifluoromethyl)thiazole-5-carboxamide]
EC50 [1]: 1290 nM
EC50 [2]: 955 nM
cellular toxicity in PBMCs at 1 μM (PBMCs): minimal toxicity
cellular toxicity in PBMCs (PBMCs): some cellular toxicity
generation of Bcl-xL splicing variant with SRSF1 or SRSF9 [3]: did not have any impact
abundance of Bcl-xS splice variant with SRSF2 ([3]; 24 hour): increased abundance
abundance of Bcl-xS splice variant with SRSF7 ([3]; 24 hour): decreased abundance
EC50 [4]: 1170 nM
EC50 (HIV-1Bal strain): 335 nM and 44 nM and 200 nM
EC50 [5]: 969 nM
EC50 [6]: 1160 nM
EC50 [7]: 951 nM
anti-HIV activity, rank within the analogue series (HIV-1NL4-3): most active

CCOC(=O)c1ccc2nc(NC(=O)c3ccc([N+](=O)[O-])s3)sc2c1 [5i, Ethyl 2-(5-nitrothiophene-2-carboxamido)benzo[d]thiazole-6-carboxylate]
anti-HIV activity in the primary library screen (HIV-1NL4-3): moderate to weak

O=C(Nc1nc2ccc(C(F)(F)F)cc2s1)c1ccc(C(F)(F)F)s1 [8c, 5-(trifluoromethyl)-N-(6-(trifluoromethyl)benzo[d]thiazol-2-yl)thiophene-2-carboxamide]
toxicity of thiophene analogues (CEM-GXR cells): toxicity at low micromolar concentrations
anti-HIV activity, rank within the analogue series (HIV-1NL4-3): most active

Nc1nc(=O)n([C@@H]2CS[C@H](CO)O2)cc1F [FTC, emtricitabine, reference compound]
EC50 [1]: 33.7 nM
EC50 [2]: 26.3 nM

O=C(Nc1nc2ccc([N+](=O)[O-])cc2s1)c1ccc(C(F)(F)F)s1 [8b, N-(6-nitrobenzo[d]thiazol-2-yl)-5-(trifluoromethyl)thiophene-2-carboxamide]
toxicity of thiophene analogues (CEM-GXR cells): toxicity at low micromolar concentrations
anti-HIV activity, rank within the analogue series (HIV-1NL4-3): most active

[N-]=[N+]=Nc1ccc2nc(NC(=O)c3cnc(C(F)(F)F)s3)sc2c1 [12e, N-(6-azidobenzo[d]thiazol-2-yl)-2-(trifluoromethyl)thiazole-5-carboxamide]
cellular toxicity in PBMCs at 1 μM (PBMCs): minimal toxicity
cellular toxicity in PBMCs (PBMCs): minimal toxicity
anti-HIV activity, rank within the analogue series (HIV-1NL4-3): most active

O=C(Nc1nc2ccc(F)cc2s1)c1ccc([N+](=O)[O-])s1 [5j, N-(6-Fluorobenzo[d]thiazol-2-yl)-5-nitrothiophene-2-carboxamide]
anti-HIV activity in the primary library screen (HIV-1NL4-3): moderate to weak

O=C(Nc1nc2c(Cl)cc(Cl)cc2s1)c1ccc([N+](=O)[O-])s1 [5e, N-(4,6-Dichlorobenzo[d]thiazol-2-yl)-5-nitrothiophene-2-carboxamide]
toxicity in the preliminary screen (CEM-GXR cells): toxicity
anti-HIV activity in the primary library screen (HIV-1NL4-3): significant activity

O=[N+]([O-])c1ccc(C=Cc2ccc3ccccc3n2)s1 [compound 5350150, 2-(2-(5-nitro-2-thienyl)vinyl)quinolone]
HIV replication (HIV): blocked HIV replication

O=C(Nc1nc2c(Cl)cccc2s1)c1ccc([N+](=O)[O-])s1 [5a, N-(4-Chlorobenzo[d]thiazol-2-yl)-5-nitrothiophene-2-carboxamide]
anti-HIV activity in the primary library screen (HIV-1NL4-3): significant activity

O=C(Nc1nc2c(Cl)cccc2s1)c1ccc(C(F)(F)F)s1 [8a, N-(4-Chlorobenzo[d]thiazol-2-yl)-5-(trifluoromethyl)thiophene-2-carboxamide]
anti-HIV activity, rank within the analogue series (HIV-1NL4-3): most active

O=C(Nc1nc2cc(Br)ccc2s1)c1ccc([N+](=O)[O-])s1 [5f, N-(5-Bromobenzo[d]thiazol-2-yl)-5-nitrothiophene-2-carboxamide]
toxicity in the preliminary screen (CEM-GXR cells): toxicity
anti-HIV activity in the primary library screen (HIV-1NL4-3): significant activity

O=C(Nc1nc2ccc(Cl)cc2s1)c1ccc([N+](=O)[O-])s1 [5d, N-(6-Chlorobenzo[d]thiazol-2-yl)-5-nitrothiophene-2-carboxamide]
anti-HIV activity in the primary library screen (HIV-1NL4-3): significant activity

O=C(Nc1nc2ccc(Br)cc2s1)c1ccc([N+](=O)[O-])s1 [5k, N-(6-Bromobenzo[d]thiazol-2-yl)-5-nitrothiophene-2-carboxamide]
anti-HIV activity in the primary library screen (HIV-1NL4-3): moderate to weak

O=C(Nc1nc2ccc([N+](=O)[O-])cc2s1)c1cnc(C(F)(F)F)s1 [12b, N-(6-nitrobenzo[d]thiazol-2-yl)-2-(trifluoromethyl)thiazole-5-carboxamide]
anti-HIV activity, rank within the analogue series (HIV-1NL4-3): most active

O=C(Nc1nc2ccc(C(F)(F)F)cc2s1)c1ccc([N+](=O)[O-])s1 [5h, 5-Nitro-N-(6-(trifluoromethyl)benzo[d]thiazol-2-yl)thiophene-2-carboxamide]
anti-HIV activity in the primary library screen (HIV-1NL4-3): significant activity

O=C(Nc1nc2ccccc2s1)c1ccc([N+](=O)[O-])s1 [5g, N-(Benzo[d]thiazol-2-yl)-5-nitrothiophene-2-carboxamide]
anti-HIV activity in the primary library screen (HIV-1NL4-3): moderate to weak

O=C(Nc1nc2ccc(OC(F)(F)F)cc2s1)c1ccc([N+](=O)[O-])s1 [5b, 5-Nitro-N-(6-(trifluoromethoxy)benzo[d]thiazol-2-yl)thiophene-2-carboxamide]
toxicity in the preliminary screen (CEM-GXR cells): toxicity
anti-HIV activity in the primary library screen (HIV-1NL4-3): significant activity

O=C(Nc1nc2ccc([N+](=O)[O-])cc2s1)c1ccc([N+](=O)[O-])s1 [5c, 5-Nitro-N-(6-nitrobenzo[d]thiazol-2-yl)thiophene-2-carboxamide]
anti-HIV activity in the primary library screen (HIV-1NL4-3): significant activity
